Measured values taken from US20230312550A1, “N-(2-(4-CYANOTHIAZOLIDIN-3-YL)-2-OXOETHYL)-QUINOLINE-4-CARBOXAMIDES” (AstraZeneca AB, priority 2020, published 2023).
≈ marks a conversion by molar mass, not a printed value.

Key:
FAP = FAP (Homo sapiens (Human), UniProt Q12884); assay: hFAP inhibition assay; type: biochemical; conditions: Ala-Pro-AMC 20 μM, n = 1 or geometric mean n = 2-3
Outline: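 Human FAP (0.48 nM) in 100 mM Tris HCl, 100 mM NaCl, 0.05% Chaps, pH 7.4 was preincubated 15 min at rt in the dark with compounds (10-point, 3-fold series from 50 μM). Substrate was added from a 40 μM solution, then 30 min at rt. Fluorescence read at ex 340/em 460 nm; IC50 from one-site dose-response fit of % inhibition.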

[1] = molecular target: human Fibroblast activation protein alpha (hFAP) (Homo sapiens (Human), UniProt Q12884); assay: hFAP inhibition assay (tight binders); type: biochemical; conditions: Ala-Pro-AMC 20 μM, n = 1 or geometric mean n = 2-6; also: hFAP 2.4 pM
Chain of human Fibroblast activation protein alpha (hFAP) (Q12884 38-760): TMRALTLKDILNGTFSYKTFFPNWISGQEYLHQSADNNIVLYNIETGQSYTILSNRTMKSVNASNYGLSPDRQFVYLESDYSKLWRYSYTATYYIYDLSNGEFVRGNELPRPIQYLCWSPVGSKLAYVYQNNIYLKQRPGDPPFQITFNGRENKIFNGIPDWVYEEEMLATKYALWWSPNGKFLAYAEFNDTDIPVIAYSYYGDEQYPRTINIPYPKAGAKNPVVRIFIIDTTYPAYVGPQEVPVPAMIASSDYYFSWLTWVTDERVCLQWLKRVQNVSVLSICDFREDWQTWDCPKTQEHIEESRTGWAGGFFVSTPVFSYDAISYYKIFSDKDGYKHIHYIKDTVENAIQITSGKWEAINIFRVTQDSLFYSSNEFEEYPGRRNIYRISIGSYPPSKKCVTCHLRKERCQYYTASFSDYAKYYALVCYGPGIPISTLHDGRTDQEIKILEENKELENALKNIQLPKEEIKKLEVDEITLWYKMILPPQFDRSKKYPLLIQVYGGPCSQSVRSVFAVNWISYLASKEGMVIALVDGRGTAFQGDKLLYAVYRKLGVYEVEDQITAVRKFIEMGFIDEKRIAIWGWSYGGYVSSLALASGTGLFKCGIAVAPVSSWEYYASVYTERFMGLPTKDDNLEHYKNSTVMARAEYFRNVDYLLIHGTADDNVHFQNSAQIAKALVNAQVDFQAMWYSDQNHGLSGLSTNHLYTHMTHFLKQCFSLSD
Method: The plates were read on a PHERAstar® reader with excitation 340 nm and emission 460 nm. Data were analyzed in Genedata Screener®. IC50 values were determined by plotting % inhibition versus log compound concentration and using a one site dose response model.

hFAP (M39-A757) = hFAP (M39-A757) (Homo sapiens (Human), UniProt Q12884); assay: hFAP binding assay (surface plasmon resonance); conditions: SPR, 20° C.; for hFAP Binding assay k(off) / hFAP Binding assay k(on): single cycle kinetics; for Kd: n = 1 or geometric mean n = 2-4
Chain of hFAP (M39-A757) (Q12884 39-757): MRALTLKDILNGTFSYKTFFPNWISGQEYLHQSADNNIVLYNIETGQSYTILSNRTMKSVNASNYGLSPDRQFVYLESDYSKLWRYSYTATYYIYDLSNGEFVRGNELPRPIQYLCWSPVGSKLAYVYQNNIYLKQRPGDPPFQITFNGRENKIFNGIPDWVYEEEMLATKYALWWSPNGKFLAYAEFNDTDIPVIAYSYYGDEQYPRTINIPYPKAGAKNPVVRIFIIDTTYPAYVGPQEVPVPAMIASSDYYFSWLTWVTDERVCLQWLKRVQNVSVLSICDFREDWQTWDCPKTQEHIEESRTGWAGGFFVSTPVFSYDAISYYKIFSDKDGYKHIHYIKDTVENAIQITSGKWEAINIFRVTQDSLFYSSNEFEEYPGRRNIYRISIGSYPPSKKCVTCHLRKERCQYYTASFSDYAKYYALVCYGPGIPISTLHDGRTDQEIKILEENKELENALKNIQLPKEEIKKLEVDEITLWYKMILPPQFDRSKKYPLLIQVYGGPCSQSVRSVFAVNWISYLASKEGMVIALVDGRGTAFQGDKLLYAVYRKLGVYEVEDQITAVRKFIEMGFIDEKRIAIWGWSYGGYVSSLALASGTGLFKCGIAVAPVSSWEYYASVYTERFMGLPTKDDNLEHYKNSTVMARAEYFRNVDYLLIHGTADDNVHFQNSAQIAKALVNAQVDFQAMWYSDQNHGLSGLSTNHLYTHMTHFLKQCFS

[2] = molecular target: Prolyl endopeptidase, Prolyl Oligopeptidase (hPREP) (Homo sapiens (Human), UniProt P48147); assay: hPrep inhibition assay; type: biochemical; conditions: hPREP 0.6 nM, Z-Gly-Pro-amino-methylcoumarin 50 μM; read-out: PREP IC50
Chain of Prolyl endopeptidase, Prolyl Oligopeptidase (hPREP) (P48147 whole entry): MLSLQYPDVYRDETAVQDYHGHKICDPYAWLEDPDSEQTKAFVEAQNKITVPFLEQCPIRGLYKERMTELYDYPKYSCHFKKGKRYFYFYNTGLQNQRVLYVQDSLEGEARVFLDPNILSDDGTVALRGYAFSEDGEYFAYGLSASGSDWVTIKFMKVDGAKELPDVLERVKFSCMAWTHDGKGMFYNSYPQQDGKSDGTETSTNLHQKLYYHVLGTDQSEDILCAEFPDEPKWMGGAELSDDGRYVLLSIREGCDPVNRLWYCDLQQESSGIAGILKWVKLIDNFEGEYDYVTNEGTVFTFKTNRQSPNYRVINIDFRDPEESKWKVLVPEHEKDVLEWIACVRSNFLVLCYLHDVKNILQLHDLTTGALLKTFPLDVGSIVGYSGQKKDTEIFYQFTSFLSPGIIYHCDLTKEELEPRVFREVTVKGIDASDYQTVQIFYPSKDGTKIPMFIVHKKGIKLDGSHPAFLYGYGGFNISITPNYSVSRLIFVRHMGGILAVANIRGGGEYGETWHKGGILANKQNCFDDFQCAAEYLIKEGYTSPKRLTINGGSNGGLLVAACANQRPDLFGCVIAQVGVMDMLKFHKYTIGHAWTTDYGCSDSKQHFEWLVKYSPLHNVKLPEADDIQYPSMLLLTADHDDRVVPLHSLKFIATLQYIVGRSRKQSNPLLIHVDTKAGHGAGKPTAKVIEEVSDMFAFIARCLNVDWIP
Outline: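 Recombinant human PREP at 0.6 nM final with Z-Gly-Pro-AMC substrate at 50 μM final in Tris-HCl pH 7.5, NaCl, Triton X-100, glutathione; 15 min rt preincubation then 20 min rt reaction in dark. AMC fluorescence (ex 340/em 460 nm); IC50 from one-site dose-response fit of % inhibition.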

Kinetic solubility = conditions: kinetic from dmso stock
Method: Kinetic solubility was measured as described in Comput Aided Mol Des 2015, 29, 795.

Caco-2 cell permeability = conditions: human
Method: Caco-2 cell permeability was measured as described in Mol Pharm 2017, 14, 1601.

[3] = Metabolic stability in rat hepatocytes (rHep); conditions: n = 1 or geometric mean of n = 2-3
[4] = Metabolic stability in human liver microsomes (HLM); conditions: human
Method: Metabolic stability in HLM was measured as described in J Comput Aided Mol Des 2015, 29, 795.

[5] = Solubility, kinetic solubility, n = 1 or average of n = 2-3
[6] = HLM CLint, n = 1 or average of n = 2-3

Chain of FAP (Q12884 38-760): as the sequence (Q12884 38-760) above

IC50 (FAP; hFAP 0.24 nM) [nM]	IC50 [1] [nM]	hFAP Binding assay k(off) (hFAP (M39-A757)) [s⁻¹]	hFAP Binding assay k(on) (hFAP (M39-A757)) [M⁻¹ s⁻¹]	Kd (hFAP (M39-A757)) [nM]	IC50 [2] [nM]	solubility (Kinetic solubility; [5]) [µM]	Papp (Caco-2 cell permeability) [×10⁻⁶ cm/s]	rHep CLint [3] [μL/min/1E6]	microsomal CLint [4, 6] [µL/min/mg]	IC50 (FAP; hFAP […]) [nM]	Papp A→B (Caco-2 cell permeability) [×10⁻⁶ cm/s]	Papp B→A (Caco-2 cell permeability) [×10⁻⁶ cm/s]	efflux ratio (Caco-2 cell permeability)	SMILES	solubility (Kinetic solubility) [µM]	microsomal CLint [4] [µL/min/mg]
	0.12	0.00017	1800000	0.095	250	350 (≈ 148 µg/mL)		3.9	8	0.41	0.48	29	59	Cc1nc(C)c(-c2ccc3nccc(C(=O)NCC(=O)N4CSC[C@H]4C#N)c3c2)o1 [Example 215, (R)—N-(2-(4-Cyanothiazolidin-3-yl)-2-oxoethyl)-6-(2,4-dimethyloxazol-5-yl)quinoline-4-carboxamide]		
	0.42	0.000066	88000	0.75	1900	6 (≈ 2.61 µg/mL)		5.3	15	0.72				CC(C)n1nccc1-c1ccc2nccc(C(=O)NCC(=O)N3CSC[C@H]3C#N)c2c1 [Example 197, (R)—N-(2-(4-Cyanothiazolidin-3-yl)-2-oxoethyl)-6-(1-isopropyl-1H-pyrazol-5-yl)quinoline-4-carboxamide]		
	0.072	0.00022	3100000	0.07	38	19 (≈ 9.61 µg/mL)		140	190	0.098				N#C[C@@H]1CSCN1C(=O)CNC(=O)c1ccnc2ccc(N3CC(Cc4ccc(Cl)cc4)C3)cc12 [Example 187, (R)-6-(3-(4-Chlorobenzyl)azetidin-1-yl)-N-(2-(4-cyanothiazolidin-3-yl)-2-oxoethyl)quinoline-4-carboxamide]		
	0.12			0.043	130	7 (≈ 3.33 µg/mL)		15	58	0.23				N#C[C@@H]1CSCN1C(=O)CNC(=O)c1ccnc2ccc(N3CC(c4ccc(F)cc4)C3)cc12 [Example 185, (R)—N-(2-(4-Cyanothiazolidin-3-yl)-2-oxoethyl)-6-(3-(4-fluorophenyl)-azetidin-1-yl)quinoline-4-carboxamide]		
0.44	0.18	0.000098	3800000	0.026	220	150		250	220					N#C[C@@H]1CSCN1C(=O)CNC(=O)c1ccnc2ccc(N3C[C@@H]4CC[C@H]3C4)cc12 (mixture of isomers) [Example 210, 6-((1RS,4SR)-2-Azabicyclo[2.2.1]heptan-2-yl)-N-(2-((R)-4-cyanothiazolidin-3-yl)-2-oxoethyl)quinoline-4-carboxamide]		

More lines, now with the values behind:

SMILES	IC50 (FAP; hFAP 0.24 nM) [nM]	IC50 [1] [nM]	hFAP Binding assay k(off) (hFAP (M39-A757)) [s⁻¹]	hFAP Binding assay k(on) (hFAP (M39-A757)) [M⁻¹ s⁻¹]	Kd (hFAP (M39-A757)) [nM]	IC50 [2] [nM]	solubility (Kinetic solubility; [5]) [µM]	Papp (Caco-2 cell permeability) [×10⁻⁶ cm/s]	rHep CLint [3] [μL/min/1E6]	microsomal CLint [4, 6] [µL/min/mg]	IC50 (FAP; hFAP […]) [nM]	Papp A→B (Caco-2 cell permeability) [×10⁻⁶ cm/s]	Papp B→A (Caco-2 cell permeability) [×10⁻⁶ cm/s]	efflux ratio (Caco-2 cell permeability)	solubility (Kinetic solubility) [µM]	microsomal CLint [4] [µL/min/mg]
CO[C@H]1CCCN(c2ccc3nccc(C(=O)NCC(=O)N4CSC[C@H]4C#N)c3c2)C1 (mixture of isomers) [Example 41, N-(2-((R)-4-Cyanothiazolidin-3-yl)-2-oxoethyl)-6-((RS)-3-methoxypiperidin-1-yl)quinoline-4-carboxamide]	0.33	0.16	0.000064	680000	0.093	640	620	16	12	30						
CC1(C)CCN(c2ccc3nccc(C(=O)NCC(=O)N4CSC[C@H]4C#N)c3c2)CC1 [Example 33, (R)—N-(2-(4-Cyanothiazolidin-3-yl)-2-oxoethyl)-6-(4,4-dimethylpiperidin-1-yl)quinoline-4-carboxamide]		0.27	0.000052	1100000	0.059	220	85 (≈ 37.2 µg/mL)		44	92	0.34	7.5	19	2.5		
CC1CN(c2ccc3nccc(C(=O)NCC(=O)N4CSC[C@H]4C#N)c3c2)C1 [Example 25, (R)—N-(2-(4-Cyanothiazolidin-3-yl)-2-oxoethyl)-6-(3-methylazetidin-1-yl)-quinoline-4-carboxamide]		0.3	0.00011	1400000	0.076	370	130 (≈ 51.4 µg/mL)		14	23	0.41					
N#C[C@@H]1CSCN1C(=O)CNC(=O)c1ccnc2ccc(N3CCC(C(F)(F)F)CC3)cc12 [Example 39, (R)—N-(2-(4-Cyanothiazolidin-3-yl)-2-oxoethyl)-6-(4-(trifluoromethyl)-piperidin-1-yl)quinoline-4-carboxamide]		0.1	0.00016	4900000	0.04	500	22 (≈ 10.5 µg/mL)		31	120	0.28					
N#C[C@@H]1CSCN1C(=O)CNC(=O)c1ccnc2ccc(N3CCCC(F)(F)C3)cc12 [Example 36, (R)—N-(2-(4-Cyanothiazolidin-3-yl)-2-oxoethyl)-6-(3,3-difluoropiperidin-1-yl)quinoline-4-carboxamide]		0.084	0.000090	3000000	0.053	400	< 98		19	48	0.24					
N#C[C@@H]1CSCN1C(=O)CNC(=O)c1ccnc2ccc(-c3cncnc3)cc12 [Example 127, (R)—N-(2-(4-Cyanothiazolidin-3-yl)-2-oxoethyl)-6-(pyrimidin-5-yl)-quinoline-4-carboxamide]		0.16	0.0020	6000000	0.34	130	120 (≈ 48.5 µg/mL)		8.2	11	0.38					
CC1(C)CCCN1c1ccc2nccc(C(=O)NCC(=O)N3CSC[C@H]3C#N)c2c1 [Example 57, (R)—N-(2-(4-Cyanothiazolidin-3-yl)-2-oxoethyl)-6-(2,2-dimethylpyrrolidin-1-yl)quinoline-4-carboxamide]		0.098	0.00018	8000000	0.022	160	150 (≈ 63.5 µg/mL)		>300	> 300	0.26					
N#C[C@@H]1CSCN1C(=O)CNC(=O)c1ccnc2ccc(-c3ccnn3[C@H]3CCCCO3)cc12 (mixture of isomers) [Example 176, N-(2-((R)-4-Cyanothiazolidin-3-yl)-2-oxoethyl)-6-(1-((RS)-tetrahydro-2H-pyran-2-yl)-1H-pyrazol-5-yl)quinoline-4-carboxamide]	0.54	0.087	0.00022	120000	1.9	560	800		15	92						
N#C[C@@H]1CSCN1C(=O)CNC(=O)c1ccnc2ccc(N3CC4(CC4)C[C@@H]3CF)cc12 [Example 58, N-(2-((R)-4-Cyanothiazolidin-3-yl)-2-oxoethyl)-6-((R)-6-(fluoromethyl)-5-azaspiro[2.4]heptan-5-yl)quinoline-4-carboxamide]		0.076	0.091	8800000000	0.016	180			72		0.23				5.8 (≈ 2.63 µg/mL)	140
